{
  "source": "ChEMBL document CHEMBL1142687",
  "about": "“New approaches toward anti-HIV chemotherapy” (J Med Chem, 2005)",
  "key": {"[1]": {"system": "Human immunodeficiency virus 1", "experiment": "Effective concentration of the compound to inhibit human immunodeficiency virus type 1 replication", "format": "functional, organism-based"}, "[2]": {"system": "Human immunodeficiency virus 1", "experiment": "Cytotoxic concentration of the compound to inhibit HIV 1 replication", "format": "functional"}, "[3]": {"system": "Human immunodeficiency virus 1", "experiment": "Effective concentration of the compound to inhibit the replication of human immunodeficiency virus type 1", "format": "functional, organism-based"}, "[4]": {"system": "Human immunodeficiency virus 1", "experiment": "Fold reduction in plasma HIV RNAafter intravenous administration of 100 mg twice daily (1.5-2.0)", "format": "functional"}, "Cell line [5]": {"system": "Cell line", "experiment": "Reduction of viral load after administration at 25 mg, twice daily for 10 days with antiretrovirals; expressed as log10 reduction; (0.5-1 )", "format": "functional, Homo sapiens"}, "[6]": {"experiment": "Oral bioavailability in monkeys", "format": "ADME, organism-based", "conditions": "cercopithecidae, in vivo, read-out: Bioavailabiility"}, "[7]": {"experiment": "Oral bioavailability in fasted rats", "format": "ADME, organism-based", "conditions": "rat, in vivo, read-out: Bioavailabiility"}, "[8]": {"system": "Human immunodeficiency virus 1", "experiment": "(§1) Effective concentration to inhibit the replication of HIV-1 R5 strain", "format": "functional"}, "[9]": {"system": "Human immunodeficiency virus 1", "experiment": "as §1", "format": "functional, organism-based"}, "Cell line [10]": {"system": "Cell line", "experiment": "Reduction of viral load after oral administration at 100 mg for 8 weeks; expressed as log10 reduction", "format": "functional, Homo sapiens"}, "[11]": {"system": "Human immunodeficiency virus 1", "experiment": "Effective concentration against human immunodeficiency virus type 1 strains; (0.3-0.5 nM)", "format": "functional, organism-based"}, "Cell line [12]": {"system": "Cell line", "experiment": "Mean decrease in viral load in humans after administration of 25 mg once a day; expressed as log 10 reduction", "format": "functional, Homo sapiens"}, "[13]": {"target": "C-C chemokine receptor type 5 (Homo sapiens) (UniProt P51681)", "sequence (P51681 whole entry, looked up)": "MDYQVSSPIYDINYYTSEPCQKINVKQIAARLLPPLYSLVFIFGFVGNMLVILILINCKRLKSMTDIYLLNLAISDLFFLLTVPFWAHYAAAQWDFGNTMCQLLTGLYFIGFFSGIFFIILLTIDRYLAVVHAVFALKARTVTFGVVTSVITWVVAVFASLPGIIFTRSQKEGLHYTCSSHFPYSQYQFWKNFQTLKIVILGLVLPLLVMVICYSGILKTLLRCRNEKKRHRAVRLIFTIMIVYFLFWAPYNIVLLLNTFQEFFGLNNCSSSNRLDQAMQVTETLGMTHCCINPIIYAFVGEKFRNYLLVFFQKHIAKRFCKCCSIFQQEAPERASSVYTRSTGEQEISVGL", "description": "Inhibitory concentration against human immunodeficiency virus isolates utilizing C-C chemokine receptor type 5 for cell entry"}, "Cell line [14]": {"system": "Cell line", "experiment": "Mean decrease in viral load in humans after administration of 100 mg twice a day; expressed as log10 reduction", "format": "functional, Homo sapiens"}, "[15]": {"system": "Human immunodeficiency virus 1", "experiment": "Selectivity index against human immunodeficiency virus type 1", "format": "functional"}, "[16]": {"system": "Human immunodeficiency virus 1", "experiment": "Effective concentration of the compound against human immunodeficiency virus type 1", "format": "functional, organism-based"}, "[17]": {"experiment": "Inhibitory concentration to inhibit cell to cell fusion based on C14 linkmid (a short constrained peptide)", "format": "functional"}, "[18]": {"system": "Human immunodeficiency virus 1", "experiment": "Inhibitory concentration to inhibit HIV-1 mediated cell to cell fusion", "format": "functional, organism-based"}},
  "data": [
    {"compound": "O=C(/C=C(\\O)c1ccc(Cc2ccc(F)cc2)o1)c1nc[nH]n1", "values": [
      {"measurement": "EC50", "setting": "[1]", "value": 140, "unit": "nM"},
      {"measurement": "CC50", "setting": "[2]", "value": 110000, "unit": "nM"}
    ]},
    {"compound": "O=[N+]([O-])c1ccc(C2c3c(O)nc(S)nc3Oc3nc(S)nc(O)c32)cc1", "values": [
      {"measurement": "EC50", "setting": "[3]", "value": 8900, "unit": "nM"}
    ]},
    {"compound": "enfuvirtide", "values": [
      {"measurement": "Reduction", "setting": "[4]", "value": 2}
    ]},
    {"compound": "COC[C@@H](c1ccc(C(F)(F)F)cc1)N1CCN(C2(C)CCN(C(=O)c3c(C)ncnc3C)CC2)C[C@@H]1C", "note": "[VICRIVIROC]", "values": [
      {"measurement": "Reduction", "setting": "Cell line [5]", "value": 1}
    ]},
    {"compound": "CC(=O)N1CCC(C(=O)N(CCCN2CCC(Cc3ccc(C(N)=O)cc3)CC2)c2ccc(C)c(Cl)c2)CC1", "values": [
      {"measurement": "bioavailability", "setting": "[6]", "value": 28.5, "unit": "%"},
      {"measurement": "bioavailability", "setting": "[7]", "value": 9.5, "unit": "%"},
      {"measurement": "EC90", "setting": "[8]", "value": 13, "unit": "nM"},
      {"measurement": "EC50", "setting": "[9]", "value": 1.1, "unit": "nM"}
    ]},
    {"compound": "O=C1Nc2ccc(Cl)cc2[C@@](/C=C/C2CC2)(C(F)(F)F)N1", "values": [
      {"measurement": "Reduction", "setting": "Cell line [10]", "value": 1.28}
    ]},
    {"compound": "COc1ccc(S(=O)(=O)N(CC(C)C)C[C@@H](O)[C@H](Cc2ccccc2)NC(=O)O[C@H]2CO[C@H]3OCC[C@H]32)cc1", "values": [
      {"measurement": "EC50", "setting": "[11]", "value": 0.5, "unit": "nM"}
    ]},
    {"compound": "Cc1nnc(C(C)C)n1[C@H]1CC2CC[C@@H](C1)N2CC[C@H](NC(=O)C1CCC(F)(F)CC1)c1ccccc1", "note": "(single isomer, unassigned) [MARAVIROC]", "values": [
      {"measurement": "Activity", "setting": "Cell line [12]", "value": 0.42},
      {"measurement": "IC90", "setting": "[13]", "value": "< 10", "unit": "nM"},
      {"measurement": "Activity", "setting": "Cell line [14]", "value": 1.42}
    ]},
    {"compound": "Cc1ccc(C)c(CSc2c(Cl)ccc[n+]2[O-])c1", "values": [
      {"measurement": "SI", "setting": "[15]", "value": "~760"},
      {"measurement": "EC50", "setting": "[16]", "value": 0.05, "unit": "µg/mL"}
    ]},
    {"compound": "CC(C)Cc1cc(-c2ccc(-c3ccc(CCC(=O)O)cc3CC(C)C)cc2C(C)C)ccc1OCC(=O)O", "values": [
      {"measurement": "IC50", "setting": "[17]", "value": 35000, "unit": "nM"},
      {"measurement": "IC50", "setting": "[18]", "value": "~15", "unit": "µg/mL"}
    ]}
  ]
}
